How the values were obtained:
[1] = system: normal NK cells expanded with K562-aAPC; test: percent inhibition of viability; higher = more inhibition; conditions: 72 h, IL-2 2.5 ng/mL
Protocol: (§1)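 Drug sensitivity and resistance testing on K562-aAPC-expanded normal NK cells: 5 concentrations (10-fold steps over a 10,000-fold range), 72 h at 37 °C, viability by CellTiter-Glo normalised to DMSO and benzethonium chloride controls; DSS from the fitted curve.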

DERL-7 (IL-2 2.5 ng/mL) [2] = test: as above; conditions: 72 h
IMC-1 (IL-2 20 ng/mL) [3] = test: as above; conditions: 72 h
KAI3 (IL-2 2.5 ng/mL) [4] = test: as above; conditions: 72 h
KHYG-1 (IL-2 2.5 ng/mL) [5] = test: as above; conditions: 72 h
NK-92 (IL-2 2.5 ng/mL) [6] = test: as above; conditions: 72 h
NK-YS (IL-2 2.5 ng/mL) [7] = test: as above; conditions: 72 h
NKL (IL-2 2.5 ng/mL) [8] = test: as above; conditions: 72 h
SNK-6 (IL-2 2.5 ng/mL) [9] = test: as above; conditions: 72 h
YT (IL-2 2.5 ng/mL) [10] = test: as above; conditions: 72 h
[11] = system: normal primary NK cells, pool 1 (3 donors) (IL-2 2.5 ng/mL); test: as above; conditions: 72 h
[12] = system: normal primary NK cells, pool 1 (3 donors), resting (IL-2 0 ng/mL); test: as above; conditions: 72 h
[13] = system: normal primary NK cells, pool 2 (3 donors) (IL-2 2.5 ng/mL); test: as above; conditions: 72 h
[14] = system: normal primary NK cells, pool 3 (3 donors) (IL-2 2.5 ng/mL); test: as above; conditions: 72 h
[15] = system: normal NK cells expanded with K562-aAPC; test: drug sensitivity score (DSS) (DSS units); higher = more sensitive; extreme values may be limits of the assay; conditions: 72 h; IL-2 2.5 ng/mL
Protocol: as §1

DERL-7 (IL-2 2.5 ng/mL) [16] = test: as above; conditions: 72 h
IMC-1 (IL-2 20 ng/mL) [17] = test: as above; conditions: 72 h
KAI3 (IL-2 2.5 ng/mL) [18] = test: as above; conditions: 72 h
KHYG-1 (IL-2 2.5 ng/mL) [19] = test: as above; conditions: 72 h
NK-92 (IL-2 2.5 ng/mL) [20] = test: as above; conditions: 72 h
NK-YS (IL-2 2.5 ng/mL) [21] = test: as above; conditions: 72 h
NKL (IL-2 2.5 ng/mL) [22] = test: as above; conditions: 72 h
SNK-6 (IL-2 2.5 ng/mL) [23] = test: as above; conditions: 72 h
YT (IL-2 2.5 ng/mL) [24] = test: as above; conditions: 72 h
[25] = system: normal primary NK cells, pool 1 (3 donors) (IL-2 2.5 ng/mL); test: as above; conditions: 72 h
[26] = system: normal primary NK cells, pool 1 (3 donors), resting (IL-2 0 ng/mL); test: as above; conditions: 72 h
[27] = system: normal primary NK cells, pool 2 (3 donors) (IL-2 2.5 ng/mL); test: as above; conditions: 72 h
[28] = system: normal primary NK cells, pool 3 (3 donors) (IL-2 2.5 ng/mL); test: as above; conditions: 72 h

Nc1nccc(-c2c(-c3ccc(F)cc3)ncn2C2CCCCC2)n1 (max concentration tested 10000 nM)
percent inhibition of viability [%]
Conditions | 1 nM | 10 nM | 100 nM | 1000 nM | 10000 nM
DERL-7 (IL-2 2.5 ng/mL) [2] | -3.56 | -1.12 | -1.49 | 5.28 | 29
IMC-1 (IL-2 20 ng/mL) [3] | 0.25 | 1.14 | 3.57 | 3.69 | 3.74
KAI3 (IL-2 2.5 ng/mL) [4] | 3.53 | 23.9 | 60.5 | 90.9 | 66.9
KHYG-1 (IL-2 2.5 ng/mL) [5] | 4.98 | -0.44 | 4.5 | 3.42 | 31.7
NK-92 (IL-2 2.5 ng/mL) [6] | 4.97 | -2.54 | 18.6 | 23.2 | 49.9
NK-YS (IL-2 2.5 ng/mL) [7] | -3.68 | -2.41 | 3.69 | 14.9 | 47.6
NKL (IL-2 2.5 ng/mL) [8] | -2.84 | 0.96 | 7.22 | -3.94 | -2.33
SNK-6 (IL-2 2.5 ng/mL) [9] | -26.2 | -7.24 | -4.71 | 7.8 | 64.1
YT (IL-2 2.5 ng/mL) [10] | 4.57 | 3.69 | 9.54 | 15.5 | 35.5
[1] | -4.54 | -4.14 | 0.36 | -0.71 | 21.9
[11] | -3.43 | -7.84 | 9.95 | 16.4 | 17.9
[12] | -19.6 | -29.4 | 3.3 | 5.1 | 33.2
[13] | -8.96 | -5.75 | 14 | 14.7 | 21.2
[14] | -7.45 | -3.42 | 2.49 | 11.6 | 17

Conditions | drug sensitivity score
DERL-7 (IL-2 2.5 ng/mL) [16] | 2.07
IMC-1 (IL-2 20 ng/mL) [17] | 0
KAI3 (IL-2 2.5 ng/mL) [18] | 25.2
KHYG-1 (IL-2 2.5 ng/mL) [19] | 1.98
NK-92 (IL-2 2.5 ng/mL) [20] | 6.29
NK-YS (IL-2 2.5 ng/mL) [21] | 4.44
NKL (IL-2 2.5 ng/mL) [22] | 0
SNK-6 (IL-2 2.5 ng/mL) [23] | 4.81
YT (IL-2 2.5 ng/mL) [24] | 3.49
[15] | 0.68
[25] | 3.09
[26] | 2.37
[27] | 4.42
[28] | 1.17

COc1cc(N2CCC(N3CCN(C)CC3)CC2)ccc1Nc1ncnc(Nc2ccccc2S(=O)(=O)C(C)C)n1 [ASP3026] (max concentration tested 10000 nM)
percent inhibition of viability [%]
Conditions | 1 nM | 10 nM | 100 nM | 1000 nM | 10000 nM
DERL-7 (IL-2 2.5 ng/mL) [2] | 0.73 | -6.32 | 2.12 | 0.42 | 57.2
IMC-1 (IL-2 20 ng/mL) [3] | -8.57 | -5.26 | -7.48 | -3.28 | 98.9
KAI3 (IL-2 2.5 ng/mL) [4] | 5.1 | 3.91 | 7.67 | 16.4 | 42.7
KHYG-1 (IL-2 2.5 ng/mL) [5] | -6.71 | 0.13 | -0.92 | 10.2 | 61.3
NK-92 (IL-2 2.5 ng/mL) [6] | -10.8 | -22.5 | -27.1 | -14.8 | 22.2
NK-YS (IL-2 2.5 ng/mL) [7] | -5.41 | -0.07 | -1.63 | 6.41 | 44.9
NKL (IL-2 2.5 ng/mL) [8] | -3.77 | -9.59 | 5.62 | 18.9 | 47.8
SNK-6 (IL-2 2.5 ng/mL) [9] | -14.8 | -8.98 | -26.5 | -35.9 | 8.43
YT (IL-2 2.5 ng/mL) [10] | -2.02 | -0.55 | 1.22 | 12.5 | 69.4
[1] | 0.75 | -1.15 | 0.69 | 7.2 | 96.3
[11] | -1.83 | 5.98 | 6.01 | 9.21 | 38.7
[12] | -11.5 | -0.46 | -1.76 | 10.4 | 39.3
[13] | -4.59 | -7.52 | 3.32 | -3.09 | 28.1
[14] | 1.7 | -6.92 | 8.07 | 2.81 | 13.3

Conditions | drug sensitivity score
DERL-7 (IL-2 2.5 ng/mL) [16] | 3.14
IMC-1 (IL-2 20 ng/mL) [17] | 5.24
KAI3 (IL-2 2.5 ng/mL) [18] | 3.79
KHYG-1 (IL-2 2.5 ng/mL) [19] | 5.05
NK-92 (IL-2 2.5 ng/mL) [20] | 0.4
NK-YS (IL-2 2.5 ng/mL) [21] | 3.39
NKL (IL-2 2.5 ng/mL) [22] | 4.54
SNK-6 (IL-2 2.5 ng/mL) [23] | 0
YT (IL-2 2.5 ng/mL) [24] | 5.89
[15] | 6.45
[25] | 3.22
[26] | 3.53
[27] | 0.97
[28] | 0.03

Oc1ncnc2[nH]ncc12 [Allopurinol] (max concentration tested 10000 nM)
percent inhibition of viability [%]
Conditions | 1 nM | 10 nM | 100 nM | 1000 nM | 10000 nM
DERL-7 (IL-2 2.5 ng/mL) [2] | 2.01 | 4.75 | 3.34 | 1.14 | -11.8
IMC-1 (IL-2 20 ng/mL) [3] | 0.44 | 0.22 | 0.39 | 1.15 | 17.8
KAI3 (IL-2 2.5 ng/mL) [4] | 17.2 | 10.9 | 9.45 | 11.5 | 25.8
KHYG-1 (IL-2 2.5 ng/mL) [5] | -9.33 | -11.3 | -5.44 | -3.66 | 4.19
NK-92 (IL-2 2.5 ng/mL) [6] | 6.41 | 11.2 | 3.55 | 20.5 | 30.9
NK-YS (IL-2 2.5 ng/mL) [7] | 2.79 | -1.6 | -0.2 | 4.55 | 19.6
NKL (IL-2 2.5 ng/mL) [8] | 1.32 | 3.75 | 2.9 | 25.9 | 26
SNK-6 (IL-2 2.5 ng/mL) [9] | 11.9 | -22.5 | -2.24 | -13.2 | 5.06
YT (IL-2 2.5 ng/mL) [10] | -7.85 | -8.54 | -5.69 | -2.75 | 18
[1] | -3.35 | -7.15 | -3.73 | 3.65 | 10.3
[11] | -1.72 | 15.7 | 6.17 | 6.91 | 4.11
[12] | 22.9 | 25.1 | 18.7 | 23.7 | 20.5
[13] | 4.21 | 8.86 | 8.54 | 1.11 | 5.24
[14] | -2.7 | 8.19 | 6.53 | 0 | 8.15

Conditions | drug sensitivity score
DERL-7 (IL-2 2.5 ng/mL) [16] | 0
IMC-1 (IL-2 20 ng/mL) [17] | 0.55
KAI3 (IL-2 2.5 ng/mL) [18] | 0
KHYG-1 (IL-2 2.5 ng/mL) [19] | 0
NK-92 (IL-2 2.5 ng/mL) [20] | 3.57
NK-YS (IL-2 2.5 ng/mL) [21] | 1.14
NKL (IL-2 2.5 ng/mL) [22] | 4.59
SNK-6 (IL-2 2.5 ng/mL) [23] | 0
YT (IL-2 2.5 ng/mL) [24] | 0.33
[15] | 0.01
[25] | 0
[26] | 0
[27] | 0
[28] | 0
